Data: publication PMC2396520, “Antibody Complementarity-Determining Regions (CDRs) Can Display Differential Antimicrobial, Antiviral and Antitumor Activities” (PLoS ONE, 2008)
Like-named read-outs stand apart in the source and are kept apart here. Where a SMILES comes first, the peptide text is derived from it.

Tests used:
Assay type in all cases: cell-based
HIV-1 BaL (R5) = test: In vitro exogenous HIV-1 infection of PHA-stimulated PBMCs, BaL strain (p24 assay); settings: day 10, p24, mean of 3 determinations
Method: (§1) Briefly, for endogenous HIV-1 replication assays peripheral blood mononuclear cells (PBMCs) from R5 HIV-1-infected patients characterized by high viral RNA titers in plasma and cell-associated viremia were cultured in 96-well plates at 1×10^6 cells/mL in RPMI 1640 medium with 10% fetal calf serum (FCS) and 20 U/mL of rIL-2. Exogenous rIL-2 was added every 3–4 days. Cultures were treated with synthetic mAb CDRs and mAb C7/pc42 H1 asd at 10 µg/mL during the time of culture. Virus production on days 5 and 10 was assayed in the supernatants using ultrasensitive Alliance® HIV-1 p24 ELISA kit (Perkin Elmer); p24 Ag in the supernatants of untreated cultures corresponded to 100% of viral production. For exogenous infection assays, PHA-stimulated PBMCs obtained from healthy individuals were infected with BaL (R5) or IIIB (X4) HIV-1 strain at a median tissue culture infective dose (TCID50) of 500 TCID50/ml. After 2 h of adsorption, the cells were washed, suspended at 2×10^5 cells/ml in medium and cultured in 96-well cultures plates. At time zero of infection, synthetic peptides were added to the cultures at 10 µg/ml and were maintained throughout the experiment. All assays were performed in triplicate. Virus production was assayed 10 days after infection in the supernatants of HIV-1-infected PBMCs by p24 assay.

HIV-1 IIIB (X4) = test: In vitro exogenous HIV-1 infection of PHA-stimulated PBMCs, IIIB strain (p24 assay); settings: day 10, p24, mean of 3 determinations
Method: as §1

Candida albicans UP10 = settings: for Anti-Candida activity (%) at 100 µg/mL: 37°C, 6 h, triplicate; for EC50: UP10, 6 h; for EC50asd/EC50H2: anti-Candida EC50 of the derivative relative to C7/pc42 H2
Method: The alanine substituted derivatives (asd), defined according to the position held by the alanine-substituted aminoacid, were tested in the same biological assays to critically establish the functional relevance of each residue [5]. In vitro microbicidal activity of CDR peptides and selected asd against C. albicans UP 10 (clinical isolate from the fungi collection of the University of Parma) and C. albicans NCPF 3153 (National Collection of Pathogenic Fungi, Bristol, UK) were used for the in vitro experiments.
The microbicidal activity of synthetic CDRs against C. albicans strains was preliminarily evaluated by testing 100 µg/mL of each synthetic peptide by colony forming unit (CFU) assays as previously described [5]. Briefly, 10 µL of a distilled water suspension containing ∼5×10^4/mL germinating yeast cells were added to 90 µL of distilled water containing the synthetic peptide to be tested. Yeast suspensions were incubated at 37°C for 6 h. After incubation, the cell suspensions were plated on Sabouraud dextrose agar, incubated at 30°C and observed for CFU determination after 48–72 hours. Each assay was carried out in triplicate. […] EC50 was calculated by nonlinear regression analysis using Graph Pad Prism 4.01 software, San Diego, CA, USA.

R5 HIV-1 = settings: for % inhibitory activity (10 µg/ml), endogenous HIV-1 replication: ex vivo, day 10 of culture, p24, mean of 3 determinations; for % inhibitory activity (10 µg/ml): R5, 2 h
Method: as §1

[1] = system: B16F10-Nex2 murine melanoma cells; settings: 12 h
Method: Each peptide was tested in triplicate. After 12 h, the cytotoxic activities of the peptides were determined by measuring cell viability by Trypan Blue exclusion.

[2] = CDR peptides, 100 µg/mL in distilled water, CFU after 48–72 h, C. albicans UP10
[3] = C7/pc42 H2 alanine-substituted derivatives, 100 µg/mL, CFU assay

Row | Compound | % inhibitory activity (10 µg/ml), exogenous HIV-1 replication, BaL (HIV-1 BaL (R5)) | % inhibitory activity (10 µg/ml), exogenous HIV-1 replication, IIIB (HIV-1 IIIB (X4)) | Anti-Candida activity (%) at 100 µg/mL (Candida albicans UP10; [2]) | % inhibitory activity (10 µg/ml), endogenous HIV-1 replication (R5 HIV-1) | EC50 [1] | Anti-Candida activity (%) at 100 µg/mL (Candida albicans UP10; [3]) | EC50 (Candida albicans UP10) | EC50asd/EC50H2 (Candida albicans UP10) | % inhibitory activity (10 µg/ml) (R5 HIV-1)
1 | QHIRELTRSE [pc42 L3, synthetic peptide identical to light chain CDR L3 of mouse mAb pc42] | 0% | 0% | 83.9% | 0% |  |  |  |  | 
2 | ARQGVRGGAMD [C7 H3, synthetic peptide identical to heavy chain CDR H3 of mouse mAb C7] | 0% | 75% | 55.5% | 0% |  |  |  |  | 
3 | SYTFH [HuA H1, synthetic peptide identical to heavy chain CDR H1 of human IgM mAb HuA] | 84% | 0% | 12.9% | 38% |  |  |  |  | 
4 | CC[C@H](C)[C@H](NC(=O)[C@@H](N)Cc1ccc(O)cc1)C(=O)N[C@@H](C)C(=O)N[C@@H](CS)C(=O)N[C@@H](Cc1ccc(O)cc1)C(=O)N[C@@H](CC(N)=O)C(=O)NCC(=O)N[C@@H](C)C(=O)N[C@H](C(=O)N[C@@H](CO)C(=O)N[C@@H](Cc1ccc(O)cc1)C(=O)N[C@@H](CC(N)=O)C(=O)N[C@@H](CCC(N)=O)C(=O)N[C@@H](CCCCN)C(=O)N[C@@H](Cc1ccccc1)C(=O)N[C@@H](CCCCN)C(=O)O)[C@@H](C)O [S3A] (H-YIACYNGATSYNQKFK-OH; N-terminus and C-terminus assumed) |  |  |  |  | 64.9 µM | 100.00% | 3.12 µM | 0.74 | 
5 | CC[C@H](C)[C@H](NC(=O)[C@@H](N)Cc1ccc(O)cc1)C(=O)N[C@@H](CO)C(=O)N[C@@H](CS)C(=O)N[C@@H](Cc1ccc(O)cc1)C(=O)N[C@@H](CC(N)=O)C(=O)NCC(=O)N[C@@H](C)C(=O)N[C@H](C(=O)N[C@@H](CO)C(=O)N[C@@H](Cc1ccc(O)cc1)C(=O)N[C@@H](C)C(=O)N[C@@H](CCC(N)=O)C(=O)N[C@@H](CCCCN)C(=O)N[C@@H](Cc1ccccc1)C(=O)N[C@@H](CCCCN)C(=O)O)[C@@H](C)O [N12A] (H-YISCYNGATSYAQKFK-OH; N-terminus and C-terminus assumed) |  |  |  |  | 125 µM | 100.00% | 6.48 µM | 1.55 | 
6 | CSCC[C@H](NC(=O)[C@H](C)NC(=O)[C@H](Cc1ccc(O)cc1)NC(=O)CN)C(=O)N[C@@H](Cc1c[nH]cn1)C(=O)O [Y3A] (H-GYAMH-OH; N-terminus and C-terminus assumed) |  |  |  |  |  |  |  |  | 90%
7 | CC[C@H](C)[C@H](NC(=O)[C@@H](N)Cc1ccc(O)cc1)C(=O)N[C@@H](CO)C(=O)N[C@@H](CS)C(=O)N[C@@H](Cc1ccc(O)cc1)C(=O)N[C@@H](CC(N)=O)C(=O)NCC(=O)N[C@@H](C)C(=O)N[C@H](C(=O)N[C@@H](CO)C(=O)N[C@@H](Cc1ccc(O)cc1)C(=O)N[C@@H](CC(N)=O)C(=O)N[C@@H](CCC(N)=O)C(=O)N[C@@H](CCCCN)C(=O)N[C@@H](Cc1ccccc1)C(=O)N[C@@H](C)C(=O)O)[C@@H](C)O [K16A] (H-YISCYNGATSYNQKFA-OH; N-terminus and C-terminus assumed) |  |  |  |  | 87 µM | 0% | 161 µM | 38.35 | 
8 | CC[C@H](C)[C@H](NC(=O)[C@@H](N)Cc1ccc(O)cc1)C(=O)N[C@@H](CO)C(=O)N[C@@H](CS)C(=O)N[C@@H](Cc1ccc(O)cc1)C(=O)N[C@@H](CC(N)=O)C(=O)NCC(=O)N[C@@H](C)C(=O)N[C@H](C(=O)N[C@@H](CO)C(=O)N[C@@H](Cc1ccc(O)cc1)C(=O)N[C@@H](CC(N)=O)C(=O)N[C@@H](CCC(N)=O)C(=O)N[C@@H](CCCCN)C(=O)N[C@@H](C)C(=O)N[C@@H](CCCCN)C(=O)O)[C@@H](C)O [F15A] (H-YISCYNGATSYNQKAK-OH; N-terminus and C-terminus assumed) |  |  |  |  | 1000 µM | 100.00% | 0.904 µM | 0.22 | 
9 | VLAYDGSYQHYADSVKG [HuA H2, synthetic peptide identical to heavy chain CDR H2 of human IgM mAb HuA] | 74% | 0% | 0% | 40% |  |  |  |  | 
10 | C[C@H](NC(=O)[C@H](Cc1ccc(O)cc1)NC(=O)[C@H](Cc1ccc(O)cc1)NC(=O)CN)C(=O)N[C@@H](Cc1c[nH]cn1)C(=O)O [M4A] (H-GYYAH-OH; N-terminus and C-terminus assumed) |  |  |  |  |  |  |  |  | 41%
11 | CSCC[C@H](NC(=O)[C@H](Cc1ccc(O)cc1)NC(=O)[C@H](Cc1ccc(O)cc1)NC(=O)[C@H](C)N)C(=O)N[C@@H](Cc1c[nH]cn1)C(=O)O [G1A] (H-AYYMH-OH; N-terminus and C-terminus assumed) |  |  |  |  |  |  |  |  | 0%
12 | CSCC[C@H](NC(=O)[C@H](Cc1ccc(O)cc1)NC(=O)[C@H](Cc1ccc(O)cc1)NC(=O)CN)C(=O)N[C@@H](C)C(=O)O [H5A] (H-GYYMA-OH; N-terminus and C-terminus assumed) |  |  |  |  |  |  |  |  | 0%
13 | C[C@H](NC(=O)CNC(=O)[C@H](CC(N)=O)NC(=O)[C@H](Cc1ccc(O)cc1)NC(=O)[C@H](CS)NC(=O)[C@H](CO)NC(=O)[C@H](C)NC(=O)[C@@H](N)Cc1ccc(O)cc1)C(=O)N[C@H](C(=O)N[C@@H](CO)C(=O)N[C@@H](Cc1ccc(O)cc1)C(=O)N[C@@H](CC(N)=O)C(=O)N[C@@H](CCC(N)=O)C(=O)N[C@@H](CCCCN)C(=O)N[C@@H](Cc1ccccc1)C(=O)N[C@@H](CCCCN)C(=O)O)[C@@H](C)O [I2A] (H-YASCYNGATSYNQKFK-OH; N-terminus and C-terminus assumed) |  |  |  |  | 73.5 µM | 99.77% | 6.25 µM | 1.49 | 
14 | CC[C@H](C)[C@H](NC(=O)[C@@H](N)Cc1ccc(O)cc1)C(=O)N[C@@H](CO)C(=O)N[C@@H](CS)C(=O)N[C@@H](Cc1ccc(O)cc1)C(=O)N[C@@H](CC(N)=O)C(=O)N[C@@H](C)C(=O)N[C@@H](C)C(=O)N[C@H](C(=O)N[C@@H](CO)C(=O)N[C@@H](Cc1ccc(O)cc1)C(=O)N[C@@H](CC(N)=O)C(=O)N[C@@H](CCC(N)=O)C(=O)N[C@@H](CCCCN)C(=O)N[C@@H](Cc1ccccc1)C(=O)N[C@@H](CCCCN)C(=O)O)[C@@H](C)O [G7A] (H-YISCYNAATSYNQKFK-OH; N-terminus and C-terminus assumed) |  |  |  |  | 63.2 µM | 100.00% | 7.31 µM | 1.74 | 
15 | DASNRAT [HuA L2, synthetic peptide identical to light chain CDR L2 of human IgM mAb HuA] | 0% | 0% | 0% | 32% |  |  |  |  | 
16 | GQTTVTKIDEDY [HuA H3, synthetic peptide identical to heavy chain CDR H3 of human IgM mAb HuA] | 0% | 0% | 19.2% | 36% |  |  |  |  | 
17 | PNPLKAM [pc42 H3, synthetic peptide identical to heavy chain CDR H3 of mouse mAb pc42] | 11% | 0% | 25.9% | 0% |  |  |  |  | 
18 | CC[C@H](C)[C@H](NC(=O)[C@@H](N)Cc1ccc(O)cc1)C(=O)N[C@@H](CO)C(=O)N[C@@H](CS)C(=O)N[C@@H](Cc1ccc(O)cc1)C(=O)N[C@@H](CC(N)=O)C(=O)NCC(=O)N[C@@H](C)C(=O)N[C@H](C(=O)N[C@@H](C)C(=O)N[C@@H](Cc1ccc(O)cc1)C(=O)N[C@@H](CC(N)=O)C(=O)N[C@@H](CCC(N)=O)C(=O)N[C@@H](CCCCN)C(=O)N[C@@H](Cc1ccccc1)C(=O)N[C@@H](CCCCN)C(=O)O)[C@@H](C)O [S10A] (H-YISCYNGATAYNQKFK-OH; N-terminus and C-terminus assumed) |  |  |  |  | 119 µM | 100.00% | 13.2 µM | 3.16 | 
19 | CC[C@H](C)[C@H](NC(=O)[C@H](C)N)C(=O)N[C@@H](CO)C(=O)N[C@@H](CS)C(=O)N[C@@H](Cc1ccc(O)cc1)C(=O)N[C@@H](CC(N)=O)C(=O)NCC(=O)N[C@@H](C)C(=O)N[C@H](C(=O)N[C@@H](CO)C(=O)N[C@@H](Cc1ccc(O)cc1)C(=O)N[C@@H](CC(N)=O)C(=O)N[C@@H](CCC(N)=O)C(=O)N[C@@H](CCCCN)C(=O)N[C@@H](Cc1ccccc1)C(=O)N[C@@H](CCCCN)C(=O)O)[C@@H](C)O [Y1A] (H-AISCYNGATSYNQKFK-OH; N-terminus and C-terminus assumed) |  |  |  |  | 71.4 µM | 99.37% | 6.21 µM | 1.48 | 
20 | CSCC[C@H](NC(=O)[C@H](Cc1ccc(O)cc1)NC(=O)[C@H](C)NC(=O)CN)C(=O)N[C@@H](Cc1c[nH]cn1)C(=O)O [Y2A] (H-GAYMH-OH; N-terminus and C-terminus assumed) |  |  |  |  |  |  |  |  | 61%
